Read-outs that look alike come from different tables or passages of the source.
Target: human TRPA1 (Homo sapiens, UniProt O75762)
Assay: cell-based

Chain of human TRPA1 (O75762 whole entry): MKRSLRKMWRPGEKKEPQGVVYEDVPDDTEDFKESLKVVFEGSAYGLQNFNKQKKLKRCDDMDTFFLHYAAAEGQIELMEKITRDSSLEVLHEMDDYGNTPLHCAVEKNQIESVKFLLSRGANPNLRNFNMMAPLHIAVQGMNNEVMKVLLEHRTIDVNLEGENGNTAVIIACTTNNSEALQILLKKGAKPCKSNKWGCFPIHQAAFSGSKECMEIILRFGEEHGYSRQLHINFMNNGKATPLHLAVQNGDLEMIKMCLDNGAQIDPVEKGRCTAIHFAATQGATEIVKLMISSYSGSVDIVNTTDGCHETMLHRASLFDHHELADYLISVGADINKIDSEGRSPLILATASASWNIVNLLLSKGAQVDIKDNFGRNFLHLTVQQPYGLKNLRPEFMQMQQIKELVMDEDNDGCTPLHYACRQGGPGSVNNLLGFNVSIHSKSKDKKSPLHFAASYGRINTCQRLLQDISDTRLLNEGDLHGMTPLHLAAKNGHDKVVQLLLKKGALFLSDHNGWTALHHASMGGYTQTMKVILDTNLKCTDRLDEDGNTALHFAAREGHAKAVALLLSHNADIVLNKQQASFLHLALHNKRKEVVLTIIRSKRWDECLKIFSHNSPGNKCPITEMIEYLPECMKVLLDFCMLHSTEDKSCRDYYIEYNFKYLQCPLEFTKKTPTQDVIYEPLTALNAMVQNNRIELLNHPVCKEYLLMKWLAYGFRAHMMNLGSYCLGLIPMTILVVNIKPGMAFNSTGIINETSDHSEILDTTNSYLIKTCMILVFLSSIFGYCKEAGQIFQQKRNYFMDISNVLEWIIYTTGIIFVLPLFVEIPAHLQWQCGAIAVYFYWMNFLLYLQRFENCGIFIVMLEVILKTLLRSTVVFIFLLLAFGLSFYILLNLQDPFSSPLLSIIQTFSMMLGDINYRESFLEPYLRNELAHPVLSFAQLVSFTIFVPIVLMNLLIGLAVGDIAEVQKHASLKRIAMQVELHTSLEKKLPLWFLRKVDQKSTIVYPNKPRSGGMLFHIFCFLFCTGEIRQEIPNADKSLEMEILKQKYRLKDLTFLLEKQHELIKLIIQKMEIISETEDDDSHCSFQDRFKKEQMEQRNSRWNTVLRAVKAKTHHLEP

IC50 (read-out: Activity (IC50)) [nM] | SMILES | IC50 [nM]
500 to 1000 | CCOc1cccc(C2NC(=O)N(CC(F)(F)F)C3=C2C(=O)c2ccccc23)c1 (stereo not shown) [Compound 605] | 
< 100 | CCOc1cccc(C2NC(=O)N(Cc3ccccc3)C3=C2C(=O)c2ccccc23)c1 (stereo not shown) [Compound 606] | 
100 to 500 | CCOc1cccc(C2NC(=O)N(Cc3ccc(F)cc3)C3=C2C(=O)c2ccccc23)c1 (stereo not shown) [Compound 607] | 
< 100 | CCOC(=O)CN1C(=O)NC(c2cccc(OCC)c2)C2=C1c1ccccc1C2=O (stereo not shown) [Compound 608] | 
500 to 1000 | CCOc1cccc(C2NC(=O)N(CC(=O)OC(C)(C)C)C3=C2C(=O)c2ccccc23)c1 (stereo not shown) [Compound 609] | 
> 1000 | CCOc1cccc(C2NC(=O)N(CC(=O)O)C3=C2C(=O)c2ccccc23)c1 (stereo not shown) [Compound 610] | 
> 1000 | CCOc1cccc(C2NC(=O)N(Cc3ccccn3)C3=C2C(=O)c2ccccc23)c1 (stereo not shown) [Compound 611] | 
100 to 500 | CCOc1cccc(C2NC(=O)N(Cc3cccnc3)C3=C2C(=O)c2ccccc23)c1 (stereo not shown) [Compound 612] | 
> 1000 | CCOc1cccc(C2NC(=O)N(Cc3ccncc3)C3=C2C(=O)c2ccccc23)c1 (stereo not shown) [Compound 613] | 
100 to 500 | C=CCN1C(=O)NC(c2cccc(OCC)c2)C2=C1c1ccccc1C2=O (stereo not shown) [Compound 614] | 
< 100 | CCCOc1cccc(C2NC(=O)N(CC#N)C3=C2C(=O)c2ccccc23)c1 (stereo not shown) [Compound 615] | 
< 100 | CCOc1cccc(C2NC(=O)NC3=C2C(=O)c2ccccc23)c1F (stereo not shown) [Compound 616] | 
< 100 | CCOc1cccc(C2NC(=O)N(CC#N)C3=C2C(=O)c2ccccc23)c1F (stereo not shown) [Compound 617] | 
< 100 | N#CCN1C(=O)NC(c2cccc(OC(F)F)c2)C2=C1c1ccccc1C2=O (stereo not shown) [Compound 618] | 
100 to 500 | CCN1C(=O)NC(c2cccc(OC(F)F)c2)C2=C1c1ccccc1C2=O (stereo not shown) [Compound 619] | 
< 100 | O=C1C2=C(c3ccccc31)N(Cc1ccccc1)C(=O)NC2c1cccc(OC(F)F)c1 (stereo not shown) [Compound 620] | 
 | COc1cccc(C2NC(=O)NC3=C2C(=O)c2ccccc23)c1 (stereo not shown) [Compound 621] | 500 to 1000
100 to 500 | COc1cccc(C2NC(=O)N(C)C3=C2C(=O)c2ccccc23)c1 (stereo not shown) [Compound 622] | 
100 to 500 | CCN1C(=O)NC(c2cccc(OC)c2)C2=C1c1ccccc1C2=O (stereo not shown) [Compound 623] | 
> 1000 | CCCN1C(=O)NC(c2cccc(OC)c2)C2=C1c1ccccc1C2=O (stereo not shown) [Compound 624] | 
100 to 500 | COc1cccc(C2NC(=O)N(Cc3ccccc3)C3=C2C(=O)c2ccccc23)c1 (stereo not shown) [Compound 625] | 

IC50 (read-out: Activity (IC50)) [nM] | SMILES | IC50 [nM]
> 1000 | COc1cccc(C2NC(=O)N(CCO)C3=C2C(=O)c2ccccc23)c1 (stereo not shown) [Compound 626] | 
100 to 500 | COCCN1C(=O)NC(c2cccc(OC)c2)C2=C1c1ccccc1C2=O (stereo not shown) [Compound 627] | 
> 1000 | COc1cccc(C2NC(=O)N(CCN(C)C)C3=C2C(=O)c2ccccc23)c1 (stereo not shown) [Compound 628] | 
< 100 | C=CCOc1cccc(C2NC(=O)N(C)C3=C2C(=O)c2ccccc23)c1 (stereo not shown) [Compound 629] | 
< 100 | C=CCOc1cccc(C2NC(=O)N(CC)C3=C2C(=O)c2ccccc23)c1 (stereo not shown) [Compound 630] | 
< 100 | C=CCOc1cccc(C2NC(=O)N(CC(=O)OCC)C3=C2C(=O)c2ccccc23)c1 (stereo not shown) [Compound 631] | 
< 100 | C=CCOc1cccc(C2NC(=O)N(Cc3ccccc3)C3=C2C(=O)c2ccccc23)c1 (stereo not shown) [Compound 632] | 
< 100 | C=CCOc1cccc(C2NC(=O)N(Cc3ccc(F)cc3)C3=C2C(=O)c2ccccc23)c1 (stereo not shown) [Compound 633] | 
< 100 | C=CCOc1cccc(C2NC(=O)N(Cc3cccnc3)C3=C2C(=O)c2ccccc23)c1 (stereo not shown) [Compound 634] | 
> 1000 | C=CCOc1cccc(C2NC(=O)N(Cc3ccncc3)C3=C2C(=O)c2ccccc23)c1 (stereo not shown) [Compound 635] | 
100 to 500 | C=CCOc1cccc(C2NC(=O)N(Cc3ccccn3)C3=C2C(=O)c2ccccc23)c1 (stereo not shown) [Compound 636] | 
100 to 500 | C=CCOc1ccc(Cl)c(C2NC(=O)NC3=C2C(=O)c2ccccc23)c1 (stereo not shown) [Compound 637] | 
< 100 | C=CCOc1ccc(Cl)c(C2NC(=O)N(C)C3=C2C(=O)c2ccccc23)c1 (stereo not shown) [Compound 638] | 
< 100 | C=CCOc1cccc(C2NC(=O)N(C)C3=C2C(=O)c2ccccc23)c1Cl (stereo not shown) [Compound 639] | 
< 100 | C=CCOc1cccc(C2NC(=O)NC3=C2C(=O)c2ccccc23)c1Cl (stereo not shown) [Compound 640] | 
100 to 500 | CN1C(=O)NC(c2cccc(OCC3CC3)c2)C2=C1c1ccccc1C2=O (stereo not shown) [Compound 641] | 
> 1000 | C=CCOc1cccc(C2NC(=O)NC3=C2C(=O)c2ccccc23)c1C(F)(F)F (stereo not shown) [Compound 642] | 
> 1000 | C=CCOc1cccc(C2NC(=O)N(C)C3=C2C(=O)c2ccccc23)c1C(F)(F)F (stereo not shown) [Compound 643] | 
> 1000 | CN1C(=O)NC(c2cccc(C#N)c2)C2=C1c1ccccc1C2=O (stereo not shown) [Compound 644] | 
< 100 | CCCOc1cccc(C2NC(=O)N(C)C3=C2C(=O)c2ccccc23)c1 (stereo not shown) [Compound 645] | 
< 100 | CCCOc1cccc(C2NC(=O)N(CC)C3=C2C(=O)c2ccccc23)c1 (stereo not shown) [Compound 646] | 

IC50 (read-out: Activity (IC50)) [nM] | SMILES | IC50 [nM]
< 100 | CCCOc1cccc(C2NC(=O)N(Cc3ccccc3)C3=C2C(=O)c2ccccc23)c1 (stereo not shown) [Compound 647] | 
< 100 | CCCOc1ccc(F)c(C2NC(=O)N(CC#N)C3=C2C(=O)c2ccccc23)c1F (stereo not shown) [Compound 648] | 
> 1000 | C=CC(F)(F)Oc1cccc(C2NC(=O)N(Cc3ccccc3)C3=C2C(=O)c2ccccc23)c1 (stereo not shown) [Compound 649] | 
100 to 500 | CCOc1cccc(C2NC(=O)NC3=C2C(=O)c2cccnc23)c1F (stereo not shown) [Compound 901] | 
100 to 500 | CCOc1cccc(C2NC(=O)NC3=C2C(=O)c2cccnc23)c1 (stereo not shown) [Compound 902] | 
< 100 | CCCOc1cccc(C2NC(=O)NC3=C2C(=O)c2cccnc23)c1 (stereo not shown) [Compound 904] | 
< 100 | C=CCC(F)c1cccc(C2NC(=O)NC3=C2C(=O)c2cccnc23)c1 (stereo not shown) [Compound 905] | 
100 to 500 | CCCSc1cccc(C2NC(=O)NC3=C2C(=O)c2cccnc23)c1 (stereo not shown) [Compound 906] | 
< 100 | CCCC(F)c1cccc(C2NC(=O)NC3=C2C(=O)c2cccnc23)c1 (stereo not shown) [Compound 907] | 
100 to 500 | CCCC(O)c1cccc(C2NC(=O)NC3=C2C(=O)c2cccnc23)c1 (stereo not shown) [Compound 908] | 
100 to 500 | CCCC(=O)c1cccc(C2NC(=O)NC3=C2C(=O)c2cccnc23)c1 (stereo not shown) [Compound 909] | 
> 1000 | CCC[S+]([O-])c1cccc(C2NC(=O)NC3=C2C(=O)c2cccnc23)c1 (stereo not shown) [Compound 910] | 
> 1000 | CCCS(=O)(=O)c1cccc(C2NC(=O)NC3=C2C(=O)c2cccnc23)c1 (stereo not shown) [Compound 911] | 
< 100 | CCCOc1ccc(F)c(C2NC(=O)NC3=C2C(=O)c2cccnc23)c1F (stereo not shown) [Compound 912] | 
> 1000 | C=CCOc1cccc(C2NC(=NC#N)NC3=C2C(=O)c2ccccc23)c1 (stereo not shown) [Compound 950] | 
> 1000 | N#CN=C1NC2=C(C(=O)c3ccccc32)C(c2cccc(OCC3CC3)c2)N1 (stereo not shown) [Compound 951] | 
> 1000 | CN1C(=NC#N)NC2=C(C(=O)c3ccccc32)C1c1cccc(OCC2CC2)c1 (stereo not shown) [Compound 952] | 
> 1000 | CN1C(=NC#N)NC2=C(C(=O)c3c(Cl)cccc32)C1c1cccc(OCC2CC2)c1 (stereo not shown) [Compound 953] | 
> 1000 | N#CN=C1NC2=C(C(=O)c3c(Cl)cccc32)C(c2cccc(OCC3CC3)c2)N1 (stereo not shown) [Compound 954] | 
